The text below walks through data of article PMC2615555 (Virology, 2008).

One experiment concerns the target T1, I-A^d (Mus musculus, UniProt P01921+P04228).
T1 sequence (P04228 24-256): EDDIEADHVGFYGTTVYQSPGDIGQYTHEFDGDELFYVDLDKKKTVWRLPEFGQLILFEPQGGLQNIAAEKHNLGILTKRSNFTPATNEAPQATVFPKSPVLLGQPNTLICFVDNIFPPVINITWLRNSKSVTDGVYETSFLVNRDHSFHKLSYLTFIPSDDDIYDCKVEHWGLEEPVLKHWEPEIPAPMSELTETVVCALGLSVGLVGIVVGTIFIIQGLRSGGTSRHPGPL
T1 sequence (P01921 28-265): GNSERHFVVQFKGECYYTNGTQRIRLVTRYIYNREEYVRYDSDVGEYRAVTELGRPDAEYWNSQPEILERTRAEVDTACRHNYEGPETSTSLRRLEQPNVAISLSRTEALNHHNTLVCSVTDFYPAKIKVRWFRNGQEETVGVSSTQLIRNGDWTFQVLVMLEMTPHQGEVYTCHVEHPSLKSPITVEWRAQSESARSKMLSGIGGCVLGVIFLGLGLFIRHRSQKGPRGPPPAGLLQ
The experiment can be described thus: biochemical. It is filed as binding, BALB/c mouse.

A further experiment concerns the target T2, I-E^d (Mus musculus, UniProt P01904+P01915).
T2 sequence (P01904 26-255): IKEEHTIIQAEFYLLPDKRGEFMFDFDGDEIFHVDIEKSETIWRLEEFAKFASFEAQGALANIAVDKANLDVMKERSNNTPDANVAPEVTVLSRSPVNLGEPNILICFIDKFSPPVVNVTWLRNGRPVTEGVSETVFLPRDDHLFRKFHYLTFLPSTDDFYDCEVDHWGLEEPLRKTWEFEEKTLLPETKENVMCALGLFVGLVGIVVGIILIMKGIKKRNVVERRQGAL
T2 sequence (P01915 27-264 limits assumed): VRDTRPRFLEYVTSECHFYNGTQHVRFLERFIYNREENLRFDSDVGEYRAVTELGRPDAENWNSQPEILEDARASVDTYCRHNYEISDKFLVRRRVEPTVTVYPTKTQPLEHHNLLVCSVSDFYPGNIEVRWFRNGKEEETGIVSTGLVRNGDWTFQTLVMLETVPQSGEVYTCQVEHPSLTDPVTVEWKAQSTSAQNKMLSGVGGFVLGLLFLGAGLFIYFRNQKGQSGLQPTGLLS
The experiment can be described thus: biochemical. It is filed as binding, BALB/c mouse.

Setting [1] is: Binding Assay IC50, I-A^d (envelope 15mers).
Setting [2] is: Binding Assay IC50, I-A^d (membrane 15mers).

Regarding `CSCC[C@H](NC(=O)[C@H](CC(C)C)NC(=O)[C@H](CO)NC(=O)[C@H](C)NC(=O)[C@@H](NC(=O)[C@@H](NC(=O)[C@H](CCCNC(=N)N)NC(=O)[C@H](CCCCN)NC(=O)[C@@H](NC(=O)[C@H](CCCCN)NC(=O)[C@H](CCCNC(=N)N)NC(=O)[C@H](CC(C)C)NC(=O)[C@@H](NC(=O)[C@H](C)NC(=O)[C@@H](N)CC(C)C)C(C)C)C(C)C)C(C)C)C(C)C)C(=O)O` [C77–91], at I-A^d, the “Binding Assay IC50, I-A^d (capsid 15mers)” value is listed as “high affinity”.
In the case of `CSCC[C@H](NC(=O)[C@H](CC(C)C)NC(=O)[C@H](CO)NC(=O)[C@H](C)NC(=O)[C@@H](NC(=O)[C@@H](NC(=O)[C@H](CCCNC(=N)N)NC(=O)[C@H](CCCCN)NC(=O)[C@@H](NC(=O)[C@H](CCCCN)NC(=O)[C@@H](N)CCCNC(=N)N)C(C)C)C(C)C)C(C)C)C(=O)N[C@@H](CCCNC(=N)N)C(=O)NCC(=O)N[C@@H](CC(C)C)C(=O)N[C@@H](CO)C(=O)O` [C81–95], on I-A^d, the “Binding Assay IC50, I-A^d (capsid 15mers)” value is on record as “high affinity”.
As to `CC[C@H](C)[C@H](NC(=O)[C@H](CCCCN)NC(=O)[C@@H](NC(=O)[C@H](CCC(N)=O)NC(=O)[C@H](CC(=O)O)NC(=O)[C@@H](NC(=O)[C@@H](N)CCC(=O)O)C(C)C)[C@@H](C)O)C(=O)N[C@@H](CCC(N)=O)C(=O)N[C@@H](Cc1ccc(O)cc1)C(=O)N[C@H](C(=O)N[C@H](C(=O)N[C@@H](CCCNC(=N)N)C(=O)N[C@@H](C)C(=O)N[C@@H](CCC(N)=O)C(=O)N[C@@H](CC(C)C)C(=O)O)[C@@H](C)CC)C(C)C` [E129–143], the IC50 (as a rule, the concentration that inhibits the measured activity by half) at I-A^d (setting [1]) was below 1 µM.
On the same count and under the same terms, in the case of `CC[C@H](C)[C@H](NC(=O)[C@H](CCCCN)NC(=O)[C@@H](N)[C@@H](C)O)C(=O)N[C@@H](CCC(N)=O)C(=O)N[C@@H](Cc1ccc(O)cc1)C(=O)N[C@H](C(=O)N[C@H](C(=O)N[C@@H](CCCNC(=N)N)C(=O)N[C@@H](C)C(=O)N[C@@H](CCC(N)=O)C(=O)N[C@@H](CC(C)C)C(=O)N[C@@H](Cc1c[nH]cn1)C(=O)N[C@H](C(=O)NCC(=O)N[C@@H](C)C(=O)O)C(C)C)[C@@H](C)CC)C(C)C` [E133–147] it was below 1 µM.
`CC[C@H](C)[C@H](NC(=O)[C@@H](NC(=O)[C@H](C)NC(=O)[C@H](C)NC(=O)[C@H](Cc1c[nH]cn1)NC(=O)[C@@H]1CCCN1C(=O)[C@@H]1CCCN1C(=O)[C@H](CCC(=O)O)NC(=O)[C@H](Cc1ccccc1)NC(=O)[C@@H](N)CCC(=O)O)[C@@H](C)O)C(=O)N[C@@H](CCCNC(=N)N)C(=O)N[C@H](C(=O)N[C@@H](CC(C)C)C(=O)N[C@@H](C)C(=O)N[C@@H](CC(C)C)C(=O)O)C(C)C` [E233–247]: on I-A^d (setting [1]), the IC50 is below 1 µM. At I-E^d, the “Binding Assay IC50, I-E^d (envelope 15mers)” value is “high affinity”.
`CC[C@H](C)[C@H](NC(=O)[C@@H](NC(=O)[C@H](C)NC(=O)[C@H](C)NC(=O)[C@H](Cc1c[nH]cn1)NC(=O)[C@@H]1CCCN1)[C@@H](C)O)C(=O)N[C@@H](CCCNC(=N)N)C(=O)N[C@H](C(=O)N[C@@H](CC(C)C)C(=O)N[C@@H](C)C(=O)N[C@@H](CC(C)C)C(=O)NCC(=O)N[C@@H](CC(N)=O)C(=O)N[C@@H](CCC(N)=O)C(=O)N[C@@H](CCC(=O)O)C(=O)O)C(C)C` [E237–251] returned an IC50 at I-A^d (setting [1]) below 1 µM.
Same read-out and setting: the figure for `CC[C@H](C)[C@H](NC(=O)CN)C(=O)N[C@@H](CC(N)=O)C(=O)N[C@H](C(=O)N[C@@H](CCCNC(=N)N)C(=O)N[C@@H](CC(N)=O)C(=O)N[C@@H](CCSC)C(=O)N[C@H](C(=O)N[C@@H](CCSC)C(=O)N[C@@H](CO)C(=O)N[C@@H](CCSC)C(=O)N[C@@H](CO)C(=O)N[C@@H](CCSC)C(=O)N[C@H](C(=O)N[C@@H](CC(C)C)C(=O)O)[C@@H](C)CC)[C@@H](C)O)[C@@H](C)O` [E465–479] is below 1 µM.
With `CC[C@H](C)[C@H](NC(=O)[C@H](C)N)C(=O)N[C@@H](CC(=O)O)C(=O)N[C@@H](CC(C)C)C(=O)N1CCC[C@H]1C(=O)N[C@H](C(=O)N[C@@H](Cc1c[nH]cn1)C(=O)N[C@@H](CCC(=O)O)C(=O)N[C@@H](CC(N)=O)C(=O)N[C@@H](Cc1c[nH]cn1)C(=O)NCC(=O)N[C@@H](CC(C)C)C(=O)N[C@@H](CCCCN)C(=O)N[C@H](C(=O)N[C@@H](CCCNC(=N)N)C(=O)O)[C@@H](C)O)[C@@H](C)O` [M1–15], the IC50 at I-A^d (setting [2]) was above 45 µM; on I-E^d, 36.6 µM.
Taken in the same sequence, the figures for `CC(C)C[C@H](NC(=O)CNC(=O)[C@H](Cc1c[nH]cn1)NC(=O)[C@H](CC(N)=O)NC(=O)[C@H](CCC(=O)O)NC(=O)[C@H](Cc1c[nH]cn1)NC(=O)[C@@H](NC(=O)[C@@H]1CCCN1)[C@@H](C)O)C(=O)N[C@@H](CCCCN)C(=O)N[C@H](C(=O)N[C@@H](CCCNC(=N)N)C(=O)N[C@@H](CCC(N)=O)C(=O)N[C@@H](CCC(=O)O)C(=O)N[C@@H](CCCCN)C(=O)N[C@@H](Cc1c[nH]c2ccccc12)C(=O)O)[C@@H](C)O` [M5–19] were 13.2 µM and above 45 µM.
In the same order, the values of `CSCC[C@H](NC(=O)[C@H](Cc1c[nH]c2ccccc12)NC(=O)[C@H](CCCCN)NC(=O)[C@H](CCC(=O)O)NC(=O)[C@H](CCC(N)=O)NC(=O)[C@H](CCCNC(=N)N)NC(=O)[C@@H](NC(=O)[C@H](CCCCN)NC(=O)[C@H](CC(C)C)NC(=O)CNC(=O)[C@H](Cc1c[nH]cn1)NC(=O)[C@@H](N)CC(N)=O)[C@@H](C)O)C(=O)N[C@H](C(=O)NCC(=O)N[C@@H](CCCNC(=N)N)C(=O)O)[C@@H](C)O` [M9–23] are 40.9 µM and above 45 µM.
`CSCC[C@H](NC(=O)[C@H](CCCNC(=N)N)NC(=O)CNC(=O)[C@@H](NC(=O)[C@H](CCSC)NC(=O)[C@H](Cc1c[nH]c2ccccc12)NC(=O)[C@H](CCCCN)NC(=O)[C@H](CCC(=O)O)NC(=O)[C@H](CCC(N)=O)NC(=O)[C@H](CCCNC(=N)N)NC(=O)[C@@H](NC(=O)[C@@H](N)CCCCN)[C@@H](C)O)[C@@H](C)O)C(=O)NCC(=O)N[C@@H](CCC(=O)O)C(=O)N[C@@H](CCCNC(=N)N)C(=O)O` [M13–27]: the figures for the IC50 on I-A^d (setting [2]) and against I-E^d were 1.9 µM and above 45 µM, respectively.
Taken in the same sequence, the figures for `CSCC[C@H](NC(=O)[C@H](CCCNC(=N)N)NC(=O)CNC(=O)[C@@H](NC(=O)[C@H](CCSC)NC(=O)[C@H](Cc1c[nH]c2ccccc12)NC(=O)[C@H](CCCCN)NC(=O)[C@@H](N)CCC(=O)O)[C@@H](C)O)C(=O)NCC(=O)N[C@@H](CCC(=O)O)C(=O)N[C@@H](CCCNC(=N)N)C(=O)N[C@@H](CCC(N)=O)C(=O)N[C@@H](CC(C)C)C(=O)N[C@@H](CCC(N)=O)C(=O)N[C@@H](CCCCN)C(=O)O` [M17–31] were 20.4 µM and 20.7 µM.
As for `CC[C@H](C)[C@H](NC(=O)[C@H](CCCCN)NC(=O)[C@H](CCC(N)=O)NC(=O)[C@H](CC(C)C)NC(=O)[C@H](CCC(N)=O)NC(=O)[C@H](CCCNC(=N)N)NC(=O)[C@H](CCC(=O)O)NC(=O)CNC(=O)[C@H](CCSC)NC(=O)[C@H](CCCNC(=N)N)NC(=O)CNC(=O)[C@@H](N)[C@@H](C)O)C(=O)N[C@@H](CCC(=O)O)C(=O)N[C@@H](CCCNC(=N)N)C(=O)N[C@@H](Cc1c[nH]c2ccccc12)C(=O)O` [M21–35], the IC50 on I-A^d (setting [2]) was 42.5 µM; at I-E^d, above 45 µM.
With `CC[C@H](C)[C@H](NC(=O)[C@H](CCCCN)NC(=O)[C@H](CCC(N)=O)NC(=O)[C@H](CC(C)C)NC(=O)[C@H](CCC(N)=O)NC(=O)[C@H](CCCNC(=N)N)NC(=O)[C@H](CCC(=O)O)NC(=O)CN)C(=O)N[C@@H](CCC(=O)O)C(=O)N[C@@H](CCCNC(=N)N)C(=O)N[C@@H](Cc1c[nH]c2ccccc12)C(=O)N[C@@H](Cc1ccccc1)C(=O)N[C@H](C(=O)N[C@@H](CCCNC(=N)N)C(=O)N[C@@H](CC(N)=O)C(=O)O)C(C)C` [M25–39], the IC50 is above 45 µM at I-A^d (setting [2]) and 13.2 µM on I-E^d.
On to `CC[C@H](C)[C@H](NC(=O)[C@H](CCCCN)NC(=O)[C@H](CCC(N)=O)NC(=O)[C@@H](N)CC(C)C)C(=O)N[C@@H](CCC(=O)O)C(=O)N[C@@H](CCCNC(=N)N)C(=O)N[C@@H](Cc1c[nH]c2ccccc12)C(=O)N[C@@H](Cc1ccccc1)C(=O)N[C@H](C(=O)N[C@@H](CCCNC(=N)N)C(=O)N[C@@H](CC(N)=O)C(=O)N1CCC[C@H]1C(=O)N[C@@H](Cc1ccccc1)C(=O)N[C@@H](Cc1ccccc1)C(=O)N[C@@H](C)C(=O)O)C(C)C` [M29–43], for which the results for the IC50 on I-A^d (setting [2]) and at I-E^d were 0.593 µM and 1.56 µM, respectively.
In the case of `CC(C)C[C@H](NC(=O)[C@H](C)NC(=O)[C@@H](NC(=O)[C@@H](NC(=O)[C@H](C)NC(=O)[C@H](Cc1ccccc1)NC(=O)[C@H](Cc1ccccc1)NC(=O)[C@@H]1CCCN1C(=O)[C@H](CC(N)=O)NC(=O)[C@H](CCCNC(=N)N)NC(=O)[C@@H](NC(=O)[C@H](Cc1ccccc1)NC(=O)[C@H](Cc1c[nH]c2ccccc12)NC(=O)[C@H](CCCNC(=N)N)NC(=O)[C@@H](N)CCC(=O)O)C(C)C)C(C)C)[C@@H](C)O)C(=O)O` [M33–47], the IC50 stood at 0.0073 µM on I-A^d (setting [2]) and 2.28 µM at I-E^d.
